According to patent US10300058B2, “Tyrosine kinase inhibitor and uses thereof” (Xuanzhu Pharma Co., Ltd., priority 2014, dated 2019):
pIC50: −log10 of the molar value.

What was measured:
wild-type EGFR (WT EGFR) = wild-type EGFR (WT EGFR) (Homo sapiens (Human), UniProt P00533); assay: Mobility Shift Assay, in vitro enzyme-inhibiting activity, wild-type EGFR; type: biochemical; details: Km ATP
Protocol: 1. Preparation of Reagents
2. Preparation of a Compound Solution
(1) To the second well of a 96-well plate, 5 μL 10 mM compound (dissolved in DMSO) was added, and 95 μL 100% DMSO was added to prepare 100 μL 0.5 mM compound.
(2) To other wells, 60 μL 100% DMSO was added. 20 μL compound from the second well was added to the third well, and 4-fold dilution was further performed to get 10 diluted concentrations.
(3) To the first well and the twelfth well of the 96-well plate, 100 μL 100% DMSO was separately added, and the two wells were used as control wells.
(4) 10 μL from each well of the 96-well plate was added to another 96-well plate, and 90 μL 1-fold kinase buffer was added.
(5) 5 μL from the 96-well plate was added to another 384-well plate, for example, transferred from A1 well of the 96-well plate to A1 and A2 wells of the 384-well plate, and transferred from A2 well of the 96-well plate to A3 and A4 wells of the 384-well plate, and so on.
To 384-well plate, 10 μL 2.5-fold enzyme solution was added, and incubated at room temperature for 10 min.
(5) Kinase reaction and stop
After incubation at 28° C. for a period of time (depending on kinase), 25 μL stop solution was added.
4. Data on percent conversion was read by Caliper.
(1) Data on enzyme activity was obtained by Caliper program;
(2) Inhibition rate of enzyme activity was calculated from the data on enzyme activity by the following formula: Inhibition rate(%)=(maximal value−the measured value of a test compound)/(maximal value-minimal value)×100,
wherein, the maximal value represents the measured value of DMSO control; and the minimal value represents the measured value of blank control.
(3) Calculation of IC50 value by XLFit excel.

Pharmacokinetics in rat = type: in vivo; details: male, plasma, SD rat; for bioavailability: read-out: F (absolute bioavailability)
Protocol: Test animal: male SD rat, 3 rats, weight: 200-250 g/rat
Blank solvent for intragastric administration (po) of Compound 2, 27: 0.1% Tween 80+2% HPC (hydroxypropyl cellulose),
Preparation: HPC (hydroxypropyl cellulose) (20 g) was weighed, and slowly added to purified water (1000 mL) under stirring, and Tween 80 (1 mL) was added. The mixture was stirred until it became clear, to get a blank solvent of 0.1% Tween 80+2% HPC. Compound 2 (3.21 mg) and Compound 27 (3.03 mg) were weighed, respectively, solvent was added, and the resultant mixture was placed in a tissue grinder, and ground at a speed of 1000 r/min. After homogeneous dispersion, a solution for intragastric administration at a theoretical concentration of 0.5 mg/mL was obtained. […] After homogeneous dispersion, a solution for intragastric administration at a theoretical concentration of 1.0 mg/mL was obtained.
A blank solvent for intravenous injection (iv) for Compound 2, 27, 31: 5% DMSO+10% PEG400+85% (28% HP-β-CD)
Compound 2 (2.98 mg), Compound 27 (2.98 mg), and Compound 31 (3.27 mg) were weighed, respectively, and blank solvent for intravenous injection was added. The resultant mixture was mixed homogeneously under vortexing, placed in a 50° C. constant temperature water bath for 20 min, and filtrated through a 0.22 μm filter membrane to get a clear and transparent solution for intravenous injection at a theoretical concentration of 0.5 mg/mL.
Formulation of Compound 31 for intravenous injection (iv): 20% DMF+20% PEG400+60% sterile water for injection
Compound 31 (3.10 mg) was weighed, and dissolved in 1.262 mL DMF (N,N-dimethylformamide) ultrasonically. 1.262 mL PEG400 was added, and the resultant mixture was mixed homogeneously under vortexing. 3.786 mL sterile water for injection was added. The mixture was vertexed homogeneously to get a clear and transparent solution for intravenous injection at a theoretical concentration of 0.5 mg/ml.
po: 0.167 h, 0.5 h, 1 h, 2 h, 4 h, 6 h, 8 h, 24 h after administration.
About 100 μL whole blood was collected from caudal vein at each time point, added to an anticoagulation tube containing K2EDTA, and centrifuged at 8000 r/min for 6 min in a low-temperature centrifuge to separate the plasma; the plasma was stored in a refrigerator at −80° C.
The plasma samples of Compound 2, 27, and 31 were analyzed by means of protein precipitation: to 30 μL plasma, 200 μL internal standard (acetonitrile solution containing 50 ng/mL CNX-2006, the structure of which is
[drawing 56] prepared by reference to the method in Patent WO2012064706A1) was added; the resultant mixture was vortexted for 10 min at 1000 r/min, and centrifuged for 20 min at 4000 r/min; to 100 μL supernatant, 100 μL water was added; the resultant mixture was mixed homogeneously under vortexing and analyzed by LC-MS/MS.

wild-type EGFR (WT EGFR), sequence (P00533 25-1210): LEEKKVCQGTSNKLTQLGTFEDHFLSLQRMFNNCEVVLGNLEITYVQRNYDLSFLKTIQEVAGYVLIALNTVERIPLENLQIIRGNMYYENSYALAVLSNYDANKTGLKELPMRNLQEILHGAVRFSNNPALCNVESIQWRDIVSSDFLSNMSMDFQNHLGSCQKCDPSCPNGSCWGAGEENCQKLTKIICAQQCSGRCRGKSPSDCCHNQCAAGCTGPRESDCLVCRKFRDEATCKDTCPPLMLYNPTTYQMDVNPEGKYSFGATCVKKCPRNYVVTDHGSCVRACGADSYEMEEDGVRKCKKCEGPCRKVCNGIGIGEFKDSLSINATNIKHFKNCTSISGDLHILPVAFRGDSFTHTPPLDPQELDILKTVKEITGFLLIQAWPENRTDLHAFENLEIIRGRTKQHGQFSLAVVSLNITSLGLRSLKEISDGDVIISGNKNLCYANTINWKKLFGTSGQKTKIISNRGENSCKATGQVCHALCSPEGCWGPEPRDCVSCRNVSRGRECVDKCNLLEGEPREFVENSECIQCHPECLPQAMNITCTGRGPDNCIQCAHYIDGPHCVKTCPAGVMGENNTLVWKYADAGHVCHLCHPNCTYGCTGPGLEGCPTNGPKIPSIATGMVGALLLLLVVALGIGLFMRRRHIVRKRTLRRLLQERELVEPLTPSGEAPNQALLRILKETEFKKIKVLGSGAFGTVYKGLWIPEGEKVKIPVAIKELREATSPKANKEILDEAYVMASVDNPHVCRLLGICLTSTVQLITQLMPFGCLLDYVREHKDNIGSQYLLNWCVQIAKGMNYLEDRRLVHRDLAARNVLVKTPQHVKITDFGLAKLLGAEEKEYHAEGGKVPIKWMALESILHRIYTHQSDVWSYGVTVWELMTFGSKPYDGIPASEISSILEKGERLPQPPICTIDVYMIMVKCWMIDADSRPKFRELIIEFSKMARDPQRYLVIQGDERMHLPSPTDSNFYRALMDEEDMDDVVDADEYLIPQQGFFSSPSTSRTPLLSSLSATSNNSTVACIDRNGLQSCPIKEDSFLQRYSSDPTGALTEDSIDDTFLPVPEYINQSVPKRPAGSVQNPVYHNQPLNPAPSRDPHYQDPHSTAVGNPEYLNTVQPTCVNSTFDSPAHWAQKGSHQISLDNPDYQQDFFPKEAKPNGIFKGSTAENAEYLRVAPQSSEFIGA

| pIC50 (wild-type EGFR (WT EGFR); Table 1) | pIC50 (wild-type EGFR (WT EGFR); Table 5) | AUC(0-t) (Pharmacokinetics in rat; iv, 1 mg/kg) [ng·h/mL] | clearance (Pharmacokinetics in rat; iv, 1 mg/kg) [mL/min/kg] | AUC(0-t) (Pharmacokinetics in rat; po, 2 mg/kg) [ng·h/mL] | bioavailability (Pharmacokinetics in rat; po, 2 mg/kg) [%] | pIC50 (wild-type EGFR (WT EGFR); Table 4, unit inferred) | pIC50 (wild-type EGFR (WT EGFR); Table 7) | AUC(0-t) (Pharmacokinetics in rat; iv, 0.74 mg/kg) [ng·h/mL] | clearance (Pharmacokinetics in rat; iv, 0.74 mg/kg) [mL/min/kg] | SMILES |
| --- | --- | --- | --- | --- | --- | --- | --- | --- | --- | --- |
| 6.26 | 6.46 | 723 | 26 | 267 | 19 |  |  |  |  | C=CC(=O)Nc1cccc(Nc2nc(Nc3ccc(C4CCN(C(C)=O)CC4)cc3OC)ncc2C(F)(F)F)c1 [Compound 2, N-(3-((2-((4-(1-acetylpiperidin-4-yl)-2-methoxyphenyl)amino)-5-(trifluoromethyl)pyrimidin-4-yl)amino)phenyl)acrylamide] |
|  |  | 774 | 22.7 | 754 | 49 | 6.06 |  |  |  | C=CC(=O)Nc1cccc(Nc2nc(Nc3ccc(C4CCN(S(C)(=O)=O)CC4)cc3OC)ncc2C(F)(F)F)c1 [Compound 27, N-(3-((2-((2-methoxy-4-(1-(methylsulfonyl)piperidin-4-yl)phenyl)amino)-5-(trifluoromethyl)pyrimidin-4-yl)amino)phenyl)acrylamide] |
|  |  |  |  |  |  |  | 6.68 | 1020 | 12.2 | C=CC(=O)Nc1cccc(Nc2nc(Nc3ccc(N4CC5(CN(C(C)=O)C5)C4)cc3OC)ncc2C(F)(F)F)c1 [Compound 31, N-(3-((2-((4-(6-acetyl-2,6-diazaspiro[3.3]heptan-2-yl)-2-methoxyphenyl)amino)-5-(trifluoromethyl)pyrimidin-4-yl)amino)phenyl)acrylamide] |
|  |  |  |  |  |  | 7.14 |  |  |  | C=CC(=O)Nc1cccc(Nc2nc(Nc3ccc(N4CCC(N5CCOCC5)CC4)cc3OC)ncc2C(F)(F)F)c1 [Compound 28, N-(3-((2-((2-methoxy-4-(4-morpholinopiperidin-1-yl)phenyl)amino)-5-(trifluoromethyl)pyrimidin-4-yl)amino)phenyl)acrylamide] |
